Patent US7439039B2, “Assays for novel serotonin transporter (SERT) blockers” (priority 2003, dated 2008)
Counter-ions that a name gives are not always drawn. Like-named read-outs stand apart in the source and are kept apart here.

Tests used:
hSERT WT = hSERT WT (Homo sapiens, UniProt P31645); test: cell-based; assay type: cell-based
hSERT Y95F = hSERT Y95F (Homo sapiens, UniProt P31645, Y95F)
Description: HeLa cells maintained at 37° C. in a 5% CO2 humidified incubator, were grown in complete medium (DMEM, 10% FBS, 2 mM L-glutamine, 100 units/ml penicillin, and 100 μg/ml streptomycin). For initial evaluation of mutant transporter activity, cells were plated at a density of 100,000 cells per well in 24 well culture plates. Cells were transfected with SERT mutant or wild-type constructs with 3 μl of Fugene 6 per μg of DNA pre-mixed in OptiMEM medium. Following transfection (16 hours), cells were washed with KRH assay buffer (120 mM NaCl, 4.7 mM KCl, 2.2 mM CaCl2, 1.2 mM MgSO4, 1.2 mM KH2PO4, 10 mM HEPES, pH 7.4) and assayed by competitive uptake assays where cells were preincubated for 10 min at 37° C. in assay buffer containing 1.8 g/L glucose and various concentrations of inhibitor compounds. […] The extent of [^3H]-5-HT accumulated was determined by liquid scintillation counting on a Packard TopCount System.
The resulting data was normalized to percent uptake of wild-type control and analyzed by a non-linear competition binding equation (Prism 4 for Mac, Graphpad Software) for [^3H]-5-HT (5-hydroxy[^3H]tryptamine trifluoroacetate, Amersham Pharmacia Biotech). […] For Ki values were determined by application of the Cheng and Prusoff equation. […]

NCCc1c[nH]c2c(O)c(O)c(O)cc12 [5,6,7 trihydroxytryptamine]
EC50 (hSERT WT): 14.3 µM

NCCc1c[nH]c2ccc(O)cc12 [5HT, 5-hydroxytryptamine]
recognition (hSERT Y95F): appeared normal

NCCc1c[nH]c2c(O)cccc12 [7-hydroxytryptamine]
EC50 (hSERT WT): 1.4 µM

CC(N)Cc1c[nH]c2ccc(O)cc12 (stereo not drawn) [Alpha-methylserotonin maleate]
EC50 (hSERT WT; read-out: EC50(μM) WT): 2.2 µM

CNC(C)Cc1ccc2c(c1)OCO2 (stereo not drawn) [MDMA]
EC50 (hSERT WT; read-out: EC50(μM) WT): 0.7 µM

OC1(c2ccc(Cl)cc2)c2ccccc2C2=NCCN21 (stereo not drawn) [Mazindol]
EC50 (hSERT WT): 2.9 µM

CNCCC(Oc1ccccc1OC)c1ccccc1 (stereo not drawn) [Nisoxetine]
EC50 (hSERT WT): 1.36 µM

COC(=O)[C@H]1C(c2ccc(I)cc2)C[C@@H]2CC[C@H]1N2C (stereo partly drawn) [RTI-55]
EC50 (hSERT WT; read-out: EC50(μM) WT): 0.0007 µM

NCCc1c[nH]c2ccccc12 [Tryptamine]
EC50 (hSERT WT): 0.2 µM
